According to paper PMC5581245 (Electrophoresis, 2017):

Assay: Retention of glycopeptides on reversed phase C18 nanoLC-MS
Assay type: physicochemical
Details: difference between glycoform with and without fucose; RP C18 nanoLC, gradient 3

Sequence	RRT difference introduced by fucose (RRT expressed as trx/trGlcNAc form)
VVLHPNYSQVDIGLIK [bi-antennary glycoform of VVLHPNYSQVDIGLIK]	0.00204
VVLHPNYSQVDIGLIK [tetra-antennary glycoform of VVLHPNYSQVDIGLIK]	0.00035
VVLHPNYSQVDIGLIK [tri-antennary glycoform of VVLHPNYSQVDIGLIK]	0.00096
